In paper PMC8445934, “Transformation of tenofovir into stable ProTide nanocrystals with long-acting pharmacokinetic profiles” (Nature Communications, 2021):
Several values for one entry are separate records, joined by “and”; a condition that tells them apart may be missing. Equal values may be shown once. Read-outs that look alike come from different tables or passages of the source.

Tests used:
[1] = Prodrug chemical stability of dissociated nanoformulations in pH 2.0-10.3 buffers; assay type: physicochemical; details: buffers pH 2.0-10.3, 24 h
Protocol: The mixtures were centrifuged at 16,000 × g for 10 min. The supernatants were aspirated and stored at −80 °C until ultraperformance liquid chromatography tandem mass spectrometry (UPLC-MS/MS) analysis.

[2] = system: human monocyte-derived macrophages (MDM); assay: MTT cell viability / mitochondrial activity assay in MDM; details: for Cell viability by MTT, normalized to untreated control cells: replicates
Protocol: Human monocytes were obtained, cultured, and differentiated into MDM as previously described[11],[12],[34],[62]. The cell viability after treatment with nanoparticles was evaluated using the MTT assay. […] The cells were then washed with PBS after which 100 μL of MTT solution was added to each well (5 mg/mL) for 45 min at 37 °C. The MTT solution was then replaced with 200 μL/well of DMSO. A Molecular Devices SpectraMax M3 plate reader with SoftMax Pro 6.2 software (Sunnyvale, CA) was used to record absorbance at a wavelength of 490 nm.

CEM-ss T-cells = details: replicates
Protocol: Supplementary Fi gur e 9. ProTide Biological Characterizations. […]
one- way analysis of variance (ANOVA) followed by Tukey’s post hoc test was used to compare the prodrug and TFV-DP levels among three treatment groups (*P ≤ 0.05, **P < 0.01, […]
(0.0001– 1000 nM) and determined by HIV-1 reverse transcriptase (RT) activity after viral challenge with HIV -1ADA at an MOI of 0.1. Data was normalized and expressed as percentage of HIV-1 control ± SEM; N = 4.
(1 picture or pasted object on this page, not shown here)

HIV-1ADA = assay: Long-term antiretroviral efficacy in MDM after single 8 h treatment (HIV-1 RT activity, p24); assay type: cell-based; details: for HIV-1 RT activity: MDM, 10 µM (Figure 4D)
Protocol: To determine long-term antiretroviral efficacy following a single treatment, MDMs were plated in flat-bottom 12-well plates at a density of 1.2 × 10^6 cells/well. […] After treatment, the cells were washed twice with PBS and cultured in a fresh culture medium without drug with half-media replacement every other day. On days 1, 5, 10, 15, 20, 25, and 30 following treatment, the cells were infected with HIV-1ADA (a macrophage-tropic viral strain) at a multiplicity of infection of 0.1 infectious particles/cell for 8 h. MDM were cultured, and media samples collected on day 10 for the measurement of HIV reverse transcriptase (RT) activity as previously described[64],[65]. Cells were fixed in 2% PFA at each time point, and expression of the HIV-1p24 antigen was determined by immunocytochemistry. […] After 4 h of viral challenge, the cells were washed with PBS and given fresh media that contained the same concentrations of drug (0.00005–5,000 nM). Cell supernatants were collected 10 days later and assayed for HIV-1 RT activity as described above. Replicate studies were performed in CEM-ss CD4+ T-cell cultures. Specifically, cells were plated in 96-well plates, centrifuged at 650 × g for 5 min, and resuspended in (0.1–1,000 nM) drug-containing media for 1 h. The subsequent challenge with HIV-1NL4–3-eGFP, cell culture, sample collection, and determination of HIV-1 RT activity were performed as previously reported[13],[15].

CC(C)OC(=O)[C@H](C)N[P@](=O)(CO[C@H](C)Cn1cnc2c(N)ncnc21)Oc1ccccc1 [TAF, tenofovir alafenamide]
hydrolytic stability across pH [1]: hydrolytically unstable at basic pH | toxicity to cells ([2]; 100 μM): highly toxic to cells | concentration above which a decrease in cell viability was observed ([2]; 8 h): above 12.5 μM | Cell viability by MTT, normalized to untreated control cells ([2]; 8 h, 1.5625 uM): 0.7334 and 0.7343 and 0.7491 | Cell viability by MTT, normalized to untreated control cells ([2]; 8 h, 3.125 uM): 0.6802 and 0.6819 and 0.7483 | Cell viability by MTT, normalized to untreated control cells ([2]; 8 h, 6.25 uM): 0.6627 and 0.6548 and 0.6836 and 0.7177 | Cell viability by MTT, normalized to untreated control cells ([2]; 8 h, 25 uM): 0.6304 and 0.5666 and 0.5754 and 0.5928 | Cell viability by MTT, normalized to untreated control cells ([2]; 8 h, 50 uM): 0.4531 and 0.3981 and 0.3597 and 0.4348 | Cell viability by MTT, normalized to untreated control cells ([2]; 8 h, 100 uM): 0.3842 and 0.3676 and 0.4051 and 0.4296 | Cell viability by MTT, normalized to untreated control cells ([2]; 8 h, 200 uM): 0.3562 and 0.31 and 0.303 and 0.3222 | Prodrug measurements, CEM-ss cells (CEM-ss T-cells; 2 hours): 0.09778 and 0.1063 and 0.08772 | Prodrug measurements, CEM-ss cells (CEM-ss T-cells; 4 hours): 0.113 and 0.1292 and 0.1331 | Prodrug measurements, CEM-ss cells (CEM-ss T-cells; 8 hours): 0.2769 and 0.2544 and 0.2424 | viral breakthrough (HIV-1ADA; 10 μM, day 30): complete viral breakthrough | inhibition at 10 µM (HIV-1ADA; Human immunodeficiency virus 1, 240 h, read-out: viral inhibition): 84.5% | HIV-1 RT activity (HIV-1ADA; challenge day 1, replicates): 1.694 % of postive control and 1.963 % of postive control and 1.344 % of postive control and 1.665 % of postive control and 1.247 % of postive control and 0.8808 % of postive control | HIV-1 RT activity (HIV-1ADA; challenge day 5, replicates): 1.516 % of postive control and 1.942 % of postive control and 1.963 % of postive control and 1.828 % of postive control and 2.306 % of postive control and 0.4466 % of postive control | HIV-1 RT activity (HIV-1ADA; challenge day 10, replicates): 13.8971 % of postive control and 15.2412 % of postive control and 16.845 % of postive control and 11.6649 % of postive control and 19.6336 % of postive control and 17.0654 % of postive control | HIV-1 RT activity (HIV-1ADA; challenge day 15, replicates): 10.4755 % of postive control and 3.747 % of postive control and 7.537 % of postive control and 13.2434 % of postive control and 32.8105 % of postive control | HIV-1 RT activity (HIV-1ADA; challenge day 30, replicates): 86.3496 % of postive control and 48.9086 % of postive control and 79.0354 % of postive control and 54.8629 % of postive control
